Patent publication US20100317647A1 (priority 2009, published 2010)

Target: human Cat S (Homo sapiens, UniProt P25774)
Test: Cathepsin enzyme inhibition assay (fluorogenic peptide substrate cleavage)
Format: biochemical
Settings: human Cat S 1 nM; substrate Z-Val-Val-Arg-AMC 20 μM; pH 6.5; fluorescence over 20 minutes
Method in brief: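 Fluorogenic cleavage of Z-Val-Val-Arg-AMC (20 μM) by 1 nM enzyme in 100 mM potassium phosphate pH 6.5, 5 mM EDTA, 5 mM DTT, 0.001% Triton X-100. Reaction started with substrate; fluorescence (ex 360/em 465 nm) followed over 20 minutes. IC50 by standard methods.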

human Cat S, sequence (P25774 115-331): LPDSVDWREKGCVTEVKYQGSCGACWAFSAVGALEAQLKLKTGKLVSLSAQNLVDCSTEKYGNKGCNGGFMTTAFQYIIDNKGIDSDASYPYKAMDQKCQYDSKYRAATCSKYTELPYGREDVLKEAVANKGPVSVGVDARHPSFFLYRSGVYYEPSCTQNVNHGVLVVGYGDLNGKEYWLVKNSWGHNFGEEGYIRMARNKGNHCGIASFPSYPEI

Compound: N#CC1(NC(=O)[C@@H]2C[C@@H](S(=O)(=O)c3ccc(F)cc3Cl)C[C@H]2CF)CC1 [Example 157, (1R,2R,4R)-4-(2-Chloro-4-fluoro-benzenesulfonyl)-2-fluoromethyl-cyclopentanecarboxylic acid (1-cyano-cyclopropyl)-amide]
- IC50: 61.5 nM

Compound: N#CCNC(=O)[C@@H]1CC[C@H](S(=O)(=O)c2ccccc2Cl)C1 (racemic) [Example 43, 3-(2-Chloro-benzenesulfonyl)-cyclopentanecarboxylic acid cyanomethyl-amide]
- IC50: 345 nM

Compound: CCOC(=O)N1CCC(C#N)(NC(=O)[C@@H]2C[C@@H](S(=O)(=O)c3ccc(-c4cnn(C)c4)cc3C(F)(F)F)C[C@H]2OC)CC1 (racemic) [Example 237, 4-Cyano-4-({(1R,2R,4R) and (1S,2S,4S)-2-methoxy-4-[4-(1-methyl-1H-pyrazol-4-yl)-2-trifluoromethyl-benzenesulfonyl]-cyclopentanecarbonyl}-amino)-piperidine-1-carboxylic acid ethyl ester]
- IC50: 2.2 nM

Compound: N#CCNC(=O)[C@H]1C[C@@H](S(=O)(=O)c2ccccc2Cl)C[C@@H]1O (racemic) [Example 53, (1S,2S,4R) and (1R,2R,4S)-4-(2-Chloro-benzenesulfonyl)-2-hydroxy-cyclopentanecarboxylic acid cyanomethyl-amide]
- IC50: 6690 nM

Compound: N#CC1(NC(=O)[C@@H]2C[C@@H](S(=O)(=O)c3ccc(F)cc3Cl)C[C@H]2COc2ccccc2)CC1 [Example 164, (1R,2R,4S)-4-(2-Chloro-4-fluoro-benzenesulfonyl)-2-phenoxymethyl-cyclopentanecarboxylic acid (1-cyano-cyclopropyl)-amide]
- IC50: 3 nM

Compound: Cc1cc(-c2ccc(S(=O)(=O)[C@H]3C[C@@H](OC4CCCC4)[C@H](C(=O)NC4(C#N)CC4)C3)c(C(F)(F)F)c2)ccn1 (racemic) [Example 212, (1R,2R,4R) and (1S,2S,4S)-2-Cyclopentyloxy-4-[4-(2-methyl-pyridin-4-yl)-2-trifluoromethyl-benzenesulfonyl]-cyclopentanecarboxylic acid (1-cyano-cyclopropyl)-amide]
- IC50: 0.215 nM

Compound: N#CC1(NC(=O)[C@@H]2C[C@@H](S(=O)(=O)c3ccc(Br)cc3C(F)(F)F)C[C@H]2COC=O)CC1 [Example 152, Formic acid (1R,2R,4S)-4-(4-bromo-2-trifluoromethyl-benzenesulfonyl)-2-(1-cyano-cyclopropylcarbamoyl)-cyclopentylmethyl ester]
- IC50: 4.2 nM

Compound: N#CC1(NC(=O)[C@@H]2C[C@@H](S(=O)(=O)c3ccccc3)C[C@H]2C(=O)N2C[C@H]3CC[C@@H](C2)O3)CC1 [Example 17, (1R,2R,4R)-4-Benzenesulfonyl-2-((1R,5S)-8-oxa-3-aza-bicyclo[3.2.1]octane-3-carbonyl)-cyclopentanecarboxylic acid (1-cyano-cyclopropyl)-amide]
- IC50: 1.1 nM

Compound: N#CC1(NC(=O)[C@@H]2C[C@@H](S(=O)(=O)c3ccc(Cl)cn3)C[C@H]2C(=O)N2CCC(F)(F)C2)CC1 [Example 225, (1R,2R,4R)-4-(5-Chloro-pyridine-2-sulfonyl)-2-(3,3-difluoro-pyrrolidine-1-carbonyl)-cyclopentanecarboxylic acid (1-cyano-cyclopropyl)-amide]
- IC50: 0.38 nM

Compound: Cc1ccc(S(=O)(=O)[C@@H]2C[C@@H](C(=O)NCC#N)[C@H](C(=O)N3CCOCC3)C2)cc1 [Example 4, (1R,2R,4R)-2-(Morpholine-4-carbonyl)-4-(toluene-4-sulfonyl)-cyclopentanecarboxylic acid cyanomethyl-amide]
- IC50: 0.6 nM

Compound: N#CC1(NC(=O)[C@@H]2CC(S(=O)(=O)c3ccccc3Cl)C[C@H]2COc2ccc(O)nn2)CC1 (mixture of isomers) [Example 108, (1R,2R,4S)-4-(2-Chloro-benzenesulfonyl)-2-(6-hydroxy-pyridazin-3-yloxymethyl)-cyclopentanecarboxylic acid(1-cyano-cyclopropyl)-amide and (1R,2R,4R)-4-(2-Chloro-benzenesulfonyl)-2-(6-hydroxy-pyridazin-3-yloxymethyl)-cyclopentanecarboxylic acid(1-cyano-cyclopropyl)-amide]
- IC50: 21.2 nM

Compound: N#CCNC(=O)[C@@H]1C[C@@H](S(=O)(=O)c2ccc(F)cc2Cl)C[C@H]1COc1ccc(F)cc1 (single isomer, unassigned) [Example 143]
- IC50: 0.523 nM

Compound: Cn1cc(-c2ccc(S(=O)(=O)[C@H]3C[C@@H](OC4CCCC4)[C@H](C(=O)NC4(C#N)CC4)C3)c(C(F)(F)F)c2)cn1 (racemic) [Example 213, (1R,2R,4R) and (1S,2S,4S)-2-Cyclopentyloxy-4-[4-(1-methyl-1H-pyrazol-4-yl)-2-trifluoromethyl-benzenesulfonyl]-cyclopentanecarboxylic acid (1-cyano-cyclopropyl)-amide]
- IC50: 0.16 nM

Compound: N#CC1(NC(=O)[C@@H]2C[C@@H](S(=O)(=O)c3ccccc3)C[C@H]2C(=O)N2CCCC2)CC1 [Example 23, (1R,2R,4R)-4-Benzenesulfonyl-2-(pyrrolidine-1-carbonyl)-cyclopentanecarboxylic acid (1-cyano-cyclopropyl)-amide]
- IC50: 1.5 nM

Compound: CCN1CCN(c2ccc(S(=O)(=O)[C@H]3C[C@@H](COc4ccc(F)cc4)[C@H](C(=O)NCC#N)C3)c(Cl)c2)CC1 [Example 147, (1R,2R,4S)-4-[2-Chloro-4-(4-ethyl-piperazin-1-yl)-benzenesulfonyl]-2-(4-fluoro-phenoxymethyl)-cyclopentanecarboxylic acid cyanomethyl-amide]
- IC50: 0.227 nM

Compound: N#CC1(NC(=O)[C@@H]2C[C@@H](S(=O)(=O)c3ccccc3Cl)C[C@H]2OCc2ccc(Cl)c(Cl)c2)CC1 (racemic) [Example 250, (1R,2R,4R) and (1S,2S,4S)-4-(2-Chloro-benzenesulfonyl)-2-(3,4-dichloro-benzyloxy)-cyclopentanecarboxylic acid (1-cyano-cyclopropyl)-amide]
- IC50: 62.5 nM

Compound: CO[C@@H]1C[C@H](S(=O)(=O)c2ccc(-n3nc(C)ccc3=O)cc2Cl)C[C@H]1C(=O)NC1(C#N)CC1 (racemic) [Example 88, (1R,2R,4R) and (1S,2S,4S)-4-[2-Chloro-4-(3-methyl-6-oxo-6H-pyridazin-1-yl)-benzenesulfonyl]-2-methoxy-cyclopentanecarboxylic acid (1-cyano-cyclopropyl)-amide]
- IC50: 9.1 nM

Compound: N#CC1(NC(=O)[C@@H]2C[C@@H](S(=O)(=O)c3ccc(-c4ccnc(Cl)c4)cc3Cl)C[C@H]2C(=O)N2CCC(F)(F)C2)CC1 [Example 199, (1R,2R,4R)-4-[2-Chloro-4-(2-chloro-pyridin-4-yl)-benzenesulfonyl]-2-(3,3-difluoro-pyrrolidine-1-carbonyl)-cyclopentanecarboxylic acid (1-cyano-cyclopropyl)-amide]
- IC50: 0.135 nM

Compound: CC(C)(C)N1CCN(c2ccc(S(=O)(=O)[C@@H]3C[C@@H](C(=O)NC4(C#N)CC4)[C@H](C(=O)N4CCC(F)(F)C4)C3)c(Cl)c2)CC1 [Example 192, (1R,2R,4R)-4-[4-(4-tert-Butyl-piperazin-1-yl)-2-chloro-benzenesulfonyl]-2-(3,3-difluoro-pyrrolidine-1-carbonyl)-cyclopentanecarboxylic acid (1-cyano-cyclopropyl)-amide]
- IC50: 0.155 nM

Compound: CC(=O)N1CCN(c2ccc(S(=O)(=O)C3CC(C(=O)NC4(C#N)CC4)C(C(=O)N4CC(F)(F)C4)C3)c(C(F)(F)F)c2)CC1 (stereo not shown) [Example 131, 4-[4-(4-Acetyl-piperazin-1-yl)-2-trifluoromethyl-benzenesulfonyl]-2-(3,3-difluoro-azetidine-1-carbonyl)-cyclopentanecarboxylic acid (1-cyano-cyclopropyl)-amide]
- IC50: 1.2 nM

Compound: COC1CN(C(=O)[C@@H]2C[C@H](S(=O)(=O)c3ccccc3)C[C@H]2C(=O)NC2(C#N)CC2)C1 [Example 22, (1R,2R,4R)-4-Benzenesulfonyl-2-(3-methoxy-azetidine-1-carbonyl)-cyclopentanecarboxylic acid (1-cyano-cyclopropyl)-amide]
- IC50: 5.5 nM

Compound: Cc1cc(-c2ccc(S(=O)(=O)[C@H]3C[C@@H](OC(C)C)[C@H](C(=O)NC4(C#N)CC4)C3)c(C(F)(F)F)c2)ccn1 (racemic) [Example 140, (1R,2R,4R) and (1S,2S,4S)-2-Isopropoxy-4-[4-(2-methyl-pyridin-4-yl)-2-trifluoromethyl-benzenesulfonyl]-cyclopentanecarboxylic acid (1-cyano-cyclopropyl)-amide]
- IC50: 0.2 nM

Compound: CO[C@@H]1C[C@H](S(=O)(=O)c2ccc(-c3cnn(CC(=O)N(C)C)c3)cc2C(F)(F)F)C[C@H]1C(=O)NC1(C#N)CC1 (racemic) [Example 218, (1R,2R,4R) and (1S,2S,4S)-4-[4-(1-Dimethylcarbamoylmethyl-1H-pyrazol-4-yl)-2-trifluoromethyl-benzenesulfonyl]-2-methoxy-cyclopentanecarboxylic acid (1-cyano-cyclopropyl)-amide]
- IC50: 0.92 nM

Compound: CCOC(=O)N1CCC(C#N)(NC(=O)[C@@H]2C[C@@H](S(=O)(=O)c3ccc(Cl)cc3Cl)C[C@H]2OCc2ccc(Cl)cc2)CC1 (racemic) [Example 242, 4-{[(1R,2R,4R) and (1S,2S,4S)-2-(4-Chloro-benzyloxy)-4-(2,4-dichloro-benzenesulfonyl)-cyclopentanecarbonyl]-amino}-4-cyano-piperidine-1-carboxylic acid ethyl ester]
- IC50: 92 nM

Compound: COCc1cn(-c2ccc(S(=O)(=O)[C@@H]3C[C@H](OC)[C@@H](C(=O)NC4(C#N)CC4)C3)c(C(F)(F)F)c2)nn1 (racemic) [Example 246, (1S,2S,4S) and (1R,2R,4R)-2-Methoxy-4-[4-(4-methoxymethyl-[1,2,3]triazol-1-yl)-2-trifluoromethyl-benzenesulfonyl]-cyclopentanecarboxylic acid (1-cyano-cyclopropyl)-amide]
- IC50: 1.25 nM
